Experiments:
VEGF-A = target: T1, VEGF-A (Homo sapiens, UniProt P15692); test: VEGF-A/heparin competition assay by SPR (Biacore); format: binding; settings: 10 nM VEGF-A, biotinylated low molecular weight heparin, Sensorchip SA
T1 sequence (P15692 27-191 isoform P15692-4): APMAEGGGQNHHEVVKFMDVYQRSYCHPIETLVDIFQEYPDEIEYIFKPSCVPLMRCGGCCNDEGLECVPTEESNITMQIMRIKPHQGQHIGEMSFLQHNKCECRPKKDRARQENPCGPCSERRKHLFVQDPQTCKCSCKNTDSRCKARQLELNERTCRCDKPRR
Procedure: (§1) Heparin or low molecular weight heparin (6 kDa) from SIGMA were biotinylated at the reducing end and immobilized on a Biacore sensorchip. Different concentrations of the compounds of the present invention were co-incubated at a fixed concentration of targets: FGF-2, PDGF-β, VEGF-A or SDF-1α for 30 minutes. The mixture was then injected onto the streptavidin control (control reference) and HP surfaces. Only free growth factor (GF) or chemokine, i.e. the target molecules not bound to compounds of the present invention, were trapped on the heparin surface. From the binding of free targets on heparin, the percentages of inhibition were calculated and then reported in function of compound concentrations. The plot was fitted with a four-parameter model and IC50 was calculated. The 0% inhibition value was obtained for the injection of the studied target in running-buffer, and the 100% inhibition value was obtained for the injection of the studied target co-incubated with 10 μM of low molecular weight heparin 6 kDa.
A VEGF-A/heparin competition assay using the Biacore technology was performed using the following conditions: 10 nM VEGF-A, biotinylated low molecular weight heparin, Reference Streptavidin, Sensorchip SA, HBS-P, Regeneration NaCl 2M.
(§2) IC50 values of compounds of the present invention were determined using the Biacore technology for the growth factor and chemokine/heparin competition assays that contained the following proteins: VEGF-A, SDF-1α, FGF-2 and PDGF-β.

PDGF-β = PDGF-β (Homo sapiens, UniProt P01127); test: PDGF-β/heparin competition assay by SPR (Biacore); format: binding; settings: 10 nM PDGF-β, biotinylated heparin, Sensorchip C1
Procedure: as §1, with “kDa. A PDGF-β/heparin competition assay using the Biacore technology was performed using the following conditions: 10 nM PDGF-β, biotinylated heparin, Reference Streptavidin, Sensorchip C1, HBS-P, Regeneration NaCl 2M. IC50 values of compounds of the present invention were determined using the Biacore technology for the growth factor and chemokine/heparin competition assays that contained the following proteins: VEGF-A, SDF-1α, FGF-2 and PDGF-β.” for “kDa.”

FGF-2 = FGF-2 (Homo sapiens, UniProt P09038); test: FGF-2/heparin competition assay by SPR (Biacore); format: binding; settings: 10 nM FGF-2, biotinylated heparin, Sensorchip C1
Procedure: as §1
A FGF-2/heparin competition assay using the Biacore technology was performed in the following conditions: 10 nM FGF-2, biotinylated heparin, Reference Streptavidin, Sensorchip C1, PBS-T 0.02%, Regeneration NaCl 2M
as §2

heparanase = target: T2, heparanase (Homo sapiens, UniProt Q9Y251); test: Anti-heparanase activity (fondaparinux degradation / factor Xa chromogenic assay); format: biochemical
T2 sequence (Q9Y251 158-543 limits assumed): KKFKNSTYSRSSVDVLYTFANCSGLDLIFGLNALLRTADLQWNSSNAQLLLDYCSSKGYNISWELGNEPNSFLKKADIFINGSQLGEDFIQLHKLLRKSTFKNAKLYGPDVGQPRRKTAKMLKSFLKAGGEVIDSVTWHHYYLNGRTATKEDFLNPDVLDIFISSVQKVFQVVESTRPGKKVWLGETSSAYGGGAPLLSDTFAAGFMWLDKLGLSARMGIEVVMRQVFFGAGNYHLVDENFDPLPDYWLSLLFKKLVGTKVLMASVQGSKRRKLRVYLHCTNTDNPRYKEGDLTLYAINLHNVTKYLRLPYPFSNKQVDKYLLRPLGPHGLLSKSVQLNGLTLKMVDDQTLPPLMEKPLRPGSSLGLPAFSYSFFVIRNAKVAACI
T2 sequence (Q9Y251 36-109 limits assumed): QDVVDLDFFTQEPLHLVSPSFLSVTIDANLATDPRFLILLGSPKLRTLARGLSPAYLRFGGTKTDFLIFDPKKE
Procedure: To determine the compounds IC50 values for the heparanase target, we adapted an assay based on the ability of heparanase to degrade fondaparinux (Sanofi patent No. 287 3377 FR), and the capacity of fondaparinux to inhibit factor Xa activity via AT III binding. This assay was carried out on a STA Compact robot (Diagnostica Stago). Briefly, different concentrations of compounds were added to a mixture containing the heparanase enzyme and fondaparinux and after a time-fixed incubation period, AT III, Factor Xa and a chromogenic substrate (CBS 31.39) were sequentially added to the reaction mix. Production of paranitroanilin resulting from the degradation of the chromogenic substrate CBS 31.39 was monitored at 405 nm. Data obtained for the different concentration points were plotted using a four-parameter fit model and IC50 determined.

SDF-1α = SDF-1α (Homo sapiens, UniProt P48061); test: SDF-1α/heparin competition assay by SPR (Biacore); format: binding; settings: 96 nM SDF-1α, biotinylated low molecular weight heparin (6 kDa), Sensorchip SA
Procedure: as §1
A SDF-1α/heparin competition assay using the Biacore technology was performed using the following conditions: 96 nM SDF-1α, biotinylated low molecular weight heparin (6 kDa), Reference Streptavidin, Sensorchip SA, HBS-P, Regeneration NaCl 2M
as §2

| IC50 (VEGF-A) [nM] | IC50 (PDGF-β) [nM] | IC50 (FGF-2) [nM] | IC50 (heparanase) [nM] | IC50 (SDF-1α) [nM] | SMILES |
| --- | --- | --- | --- | --- | --- |
| 5.2 | 85 | 4.5 | 9.2 | 43 | C#CCCCOC1OC(COS(=O)(=O)[O-])C(OC2OC(C(=O)[O-])C(OC3OC(COS(=O)(=O)[O-])C(OC4OC(C(=O)[O-])C(OC5OC(COS(=O)(=O)[O-])C(OC6OC(C(=O)[O-])C(OCc7ccccc7)C(OCc7ccccc7)C6OS(=O)(=O)[O-])C(OCc6ccccc6)C5NS(=O)(=O)[O-])C(OCc5ccccc5)C4OS(=O)(=O)[O-])C(OCc4ccccc4)C3NS(=O)(=O)[O-])C(OCc3ccccc3)C2OS(=O)(=O)[O-])C(OCc2ccccc2)C1NS(=O)(=O)[O-].[Na+].[Na+].[Na+].[Na+].[Na+].[Na+].[Na+].[Na+].[Na+].[Na+].[Na+].[Na+] (stereo not shown) [Compound 239] |
| 4.8 | 10.9 | 3.6 | 0.42 | 23 | C#CCCCOC1OC(COS(=O)(=O)[O-])C(OC2OC(C(=O)[O-])C(OC3OC(COS(=O)(=O)[O-])C(OC4OC(C(=O)[O-])C(OC5OC(COS(=O)(=O)[O-])C(OC6OC(C(=O)[O-])C(OC7OC(COS(=O)(=O)[O-])C(OC8OC(C(=O)[O-])C(OCc9ccccc9)C(OCc9ccccc9)C8OS(=O)(=O)[O-])C(OCc8ccccc8)C7NS(=O)(=O)[O-])C(OCc7ccccc7)C6OS(=O)(=O)[O-])C(OCc6ccccc6)C5NS(=O)(=O)[O-])C(OCc5ccccc5)C4OS(=O)(=O)[O-])C(OCc4ccccc4)C3NS(=O)(=O)[O-])C(OCc3ccccc3)C2OS(=O)(=O)[O-])C(OCc2ccccc2)C1NS(=O)(=O)[O-].[Na+].[Na+].[Na+].[Na+].[Na+].[Na+].[Na+].[Na+].[Na+].[Na+].[Na+].[Na+].[Na+].[Na+].[Na+].[Na+] (stereo not shown) [Compound 240] |
